From patent US7919622B2, “Intermediates for fluorinated tetrabenazine carbinol compounds imaging agents and probes” (priority 2007, dated 2011) come the findings set out here.

This assay has as its target T1, VMAT-2 (Homo sapiens, UniProt Q05940).
T1 construct: Novascreen Biosciences Corporation (contract assay provider) protocol Cat. No. 100-0751
In words: VMAT-2 binding affinity measurement (Novascreen protocol Cat. No. 100-0751). Conditions: for Ki: VMAT-2 binding affinity, reserpine value is the average of two Ki values; for binding affinity for VMAT-2 (in words): relative to reserpine and DTBZ controls. From the text:
Novascreen, Inc. is a commercial provider of biological assays for the pharmaceutical industry. […] In addition, the binding constants Ki expressed in nano-molar (nM) concentration units indicate a very high affinity of the fluoroalkyl tetrabenazine carbinol compounds of the present invention for the VMAT-2 biomarker.

T1 sequence (Q05940 whole entry, species assumed): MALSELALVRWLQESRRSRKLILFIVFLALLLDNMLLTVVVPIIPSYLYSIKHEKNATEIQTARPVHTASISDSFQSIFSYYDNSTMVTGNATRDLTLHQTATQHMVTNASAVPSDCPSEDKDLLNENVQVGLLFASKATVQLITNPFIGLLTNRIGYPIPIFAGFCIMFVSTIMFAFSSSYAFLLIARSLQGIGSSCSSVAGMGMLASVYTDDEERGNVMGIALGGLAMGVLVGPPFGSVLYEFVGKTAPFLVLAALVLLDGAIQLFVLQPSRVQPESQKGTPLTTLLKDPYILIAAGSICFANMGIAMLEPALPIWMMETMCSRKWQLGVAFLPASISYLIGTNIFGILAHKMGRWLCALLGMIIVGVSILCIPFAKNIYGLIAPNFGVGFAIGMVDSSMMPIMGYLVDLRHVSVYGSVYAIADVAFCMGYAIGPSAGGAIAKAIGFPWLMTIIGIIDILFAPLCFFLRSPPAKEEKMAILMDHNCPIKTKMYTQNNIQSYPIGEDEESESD

As for `COc1cc2c(cc1OC)[C@H]1C[C@@](C#CCF)(OC(C)=O)[C@H](CC(C)C)CN1CC2` [Compound 16, (2R,3R,11bR)-2-(3-fluoroprop-1-ynyl)-3-isobutyl-9,10-dimethoxy-2,3,4,6,7,11b-hexahydro-1-H-pyrido[2,1-α]isoquinolin-2-yl acetate], the affinity corresponds to a Ki of 19 nM and the “binding affinity for VMAT-2 (in words)” value is recorded as “very high binding affinity”.

With `COc1cc2c(cc1OC)[C@H]1C[C@](O)(C#CCF)[C@H](CC(C)C)CN1CC2` [Compound 17], affinity was put at a Ki of 19 nM and the “binding affinity for VMAT-2 (in words)” value is “very high binding affinity”.

As usually defined, the Ki is a dissociation constant, usually derived from enzyme kinetics or from competition with a known ligand. Higher therefore signals lower affinity.
